# Experimental data: patent US12559750B2, “Methods and compositions for treatment of polycystic kidney disease” (Regulus Therapeutics Inc., priority 2021, dated 2026)
# What was measured:
# [1] = system: C57Bl/6J male mice; assay: ICV maximum tolerated dose study, Study 1; assay type: in vivo, mouse; settings: 7-day
# Method: Compounds (RG-NG-1017, RGLS4326, RG-NG-1001) were evaluated in a pilot maximum tolerated dose (MTD) study (discussed below). RG-NG-1017, RGLS4326 and RG-NG-1001 were initially evaluated at 4 dose-levels each. RG-NG-1017 was included for evaluation as a non-AMPA-R binding compound, as compared to RGLS4326 and RG-NG-1001, which bind AMPA-R. C57Bl/6J male mice (Jackson Laboratories), age 6-7 weeks, were used in this study. Mice were assigned randomly to treatment groups, and the study was blinded. Animals were allowed to acclimate for no less than 5 days and housed on a 12 hr light/dark cycle (lights on 7:00 AM). No more than 4 mice were house in each cage in a ventilated cage rack system. The diet consisted of standard rodent chow and water ad libitum.
# The following parameters were used for this study: • 1. Route(s) of administration: intracerebroventricular (ICV) dosing of RG-NG-1017, RG-NG-1001, RGLS4326 • 2. Dose Volume(s): 4 μL • 3. Formulation(s): vehicle, Ca^2+ and Mg^2+ free dPBS • 4. Dose Frequency: Once • 5. Study duration: 8 Days • 6. Number of Groups: 3 • 7. Number of animals per group: (2-4 each group) • 8. Total number of animals: […]
# For the ICV administration, mice were anesthetized and positioned for injections. The skin over the skull was incised, and a small hole was made in the skull above the target using a microdrill. The stereotactic coordinates were anteroposterior (AP), −0.4 mm; mediolateral (ML), +/−1.0-1.5 mm; dorsoventral (DV), −3.0 mm from the bregma for injection into both the right and left lateral cerebral ventricles (Hironaka et al, 2015). Animals were injected unilaterally with 4 μl into the right lateral cerebral ventricle. Compounds were injected over 1-2 min, and the needle was left in place for 0.5-1 min prior to withdrawal. The incision was closed with sutures, wound clips, or VetBond.
# Following ICV treatment (Day 0), animals were monitored for 7 days in which daily health checks, body weight, and mortality was recorded. On Day 7, brain and kidney were collected and fixed (10% formalin) and stored pending histology.
# [2] = system: Swiss:Rjorl male mice; assay: ICV maximum tolerated dose study for RGLS4326, Study 2; assay type: in vivo, mouse
# Method: A second MTD study for RGL4326 by ICV was conducted to assess dose selection for evaluating the compound in disease models (Table 11). In this study, a different mouse strain was evaluated (Swiss:Rjorl male mice, age 5 weeks, sourced from Janvier). Mice were placed under isoflurane anaesthesia (5% for induction and 2% for maintenance, under 100% O2) and given 5 mg/kg s.c. carprofen (Rimadyl®). They were then placed in a stereotaxic frame. A midline sagittal incision was made in the scalp and a hole was drilled in the skull over the left lateral ventricle. A stainless-steel cannula (external diameter 0.51 mm) was placed stereotaxically into the left lateral ventricle at the following coordinates: +0.5 posterior to Bregma, L±0.7 mm, V=−2.7 mm. After a 2-minute delay to allow the brain tissue to slide over the cannula, 4 μL of a solution containing 0.625 mg/mL of RG4326 was slowly infused over 2 minutes. After infusion, the cannula was left in place for a further 5 minutes to prevent backflow of the solution along the cannula track. Mice were given 5 mg/kg s.c. carprofen (Rimadyl®) at 24 and 48 hours, after surgery. Mice were monitored during 3-7 days after surgery (starting 24 h after ICV administration) and their body weight was taken daily to check their health status. For mice monitored over 7 days, body weight was taken on Day 1 and on Day 7 after surgery to check their health status.
# In Study 1, 6 mice were injected with 4 μL of a solution at 0.625 mg/mL (2.5 μg total per ICV; Table 10). At the end of anesthesia, the mice remained lying on one side. They were quiet with some periods of scratching during the first hours after surgery. […] In Study 2, four mice were injected with 4 different doses of RGLS4326 (0.75, 1.0, 1.25 and 1.875 mg/mL, volume of 4 μL). One mouse that received the highest dose (1.875 mg/mL, i.e., 7.5 μg/mouse) was found dead around 24 hours after ICV injection. All other mice were in good health, until the end of the pilot study (7 days after administration).
sequence,measurement,setting,value
"ASGSCMAFCFUFUMUSGS [RGLS4326, reference compound]",Mortality/total number of mice,[1]; single ICV 2.5 μg,0/3
same,Mortality/total number of mice,[1]; single ICV 5 μg,2/4
same,Mortality/total number of mice,[1]; single ICV 10 μg,3/4
same,Mortality/total number of mice,[1]; single ICV 25 μg,3/3
same,Mortality/total number of mice,[1]; single ICV 50 μg,3/3
same,Mortality/total number of mice,[1]; single ICV 100 μg,2/2
same,Mortality/total number of mice,[1]; single ICV 300 μg,2/2
same,Mortality/total number of mice,[1]; single ICV 600 μg,2/2
same,"toxic effects at 24, 48 or 72 hours","[2]; ICV 4 μL of 0.625 mg/mL (2.5 μg total), 6 mice",No toxic effects were observed
same,"Dead/Total Mice, Study 2",[2]; single ICV 2.5 μg,0/6
same,"Dead/Total Mice, Study 2","[2]; single ICV 3 μg, 7-day",0/4
same,"Dead/Total Mice, Study 2","[2]; single ICV 4 μg, 7-day",0/4
same,"Dead/Total Mice, Study 2","[2]; single ICV 5 μg, 7-day",0/4
same,"Dead/Total Mice, Study 2","[2]; single ICV 7.5 μg, 7-day",1/4
same,MTD,"[2]; single ICV, Swiss:Rjorl mouse strain, predicted from Study 2",~4 µg
